Data taken from ChEMBL document CHEMBL1144822, “Gymnastatins and dankastatins, growth inhibitory metabolites of a gymnascella species from a Halichondria sponge” (2008).
Converted amounts (≈) assume the structure as drawn.

Key:
P388 = experiment: Growth inhibition of mouse P388 cells; type: functional; conditions: read-out: ED50 (the source's name)
[1] = Growth inhibition of human BSY1 cells; type: functional; conditions: BSY-1, read-out: Log10GI50 (converted)
MKN-7 = experiment: Growth inhibition of human MKN7 cells; type: functional; conditions: read-out: Log10GI50 (converted)
[2] = tested on: 39 human cancer cell line panel (Homo sapiens); experiment: Growth inhibition of 39 human cancer cell line panel; conditions: read-out: Log10GI50 (converted)

| EC50 (P388) | GI50 (MKN-7) | GI50 [2] | Compound | GI50 [1] |
| --- | --- | --- | --- | --- |
| 0.15 µg/mL (≈ 0.307 µM) |  |  | CCCCCC[C@@H](C)/C=C(C)/C=C/C(=O)N[C@H]1C[C@@]2(O)C=C(Cl)C(=O)[C@@H](Cl)[C@H]2O[C@@H]1OC [DANKASTATIN A] |  |
| 1.7 µg/mL (≈ 3.48 µM) | 6.76 µM | 15.5 µM | CCCCCC[C@@H](C)/C=C(C)/C=C/C(=O)N[C@H]1C[C@]2(O)C=C(Cl)C(=O)[C@](Cl)([C@@H]1O)[C@H]2OC [GYMNASTATIN Q] | 3.39 µM |
| 0.16 µg/mL (≈ 0.349 µM) |  |  | CCCCCC[C@@H](C)/C=C(C)/C=C/C(=O)N[C@@H]1CO[C@H]2[C@@H](Cl)C(=O)C(Cl)=C[C@@]2(O)C1 [DANKASTATIN B] |  |
| 2.8 µg/mL (≈ 6.11 µM) |  |  | CCCCCC[C@@H](C)/C=C(C)/C=C/C(=O)N[C@H]1C[C@]2(O)C=C(Cl)C(=O)[C@@](Cl)(C2)[C@H]1O [GYMNASTATIN R] |  |
